US4024277A, “Phosphoro-aminosulfenyl derivatives of benzofuran carbamates” (priority 1975, dated 1977)

Columns and labels:
plum curculio = assay: Initial insecticidal activity, plum curculio; assay type: in vivo, Conotrachelus nenuphar (Herbst); conditions: Conotrachelus nenuphar, 48-hour exposure, read-out: % Kill, Plum Curculio
From the text: (§1) a. Initial Insecticidal Activity
(§2) In this test, a candidate insecticide, in solution, is applied to either infested or uninfested plants or containers by spraying or dipping. (The preferred test procedure varies with insect species. The dipping method is better than the spraying method, and vice versa, for certain species of insects. Also some species are better adapted to the test by infesting after the chemical treatment rather than before.) Once the tests have been established, a 48-hour exposure period is observed before reading the tests. Insect species included in these tests are Mexican bean beetle (Epilachna varivestis Mulsant), pea aphid [Acyrthosiphon pisum (Harris)], southern armyworm [Spodoptera eridania (Cramer)], twospotted spider mite (Tetranychus urticae Koch), large milkweed bug [Oncopeltus fasciatus (Dallas)], plum curculio [Conotrachelus nenuphar (Herbst)], confused flour beetle (Tribolium confusum Jacquelin duVal) and granary weevil [Sitophilus granarius (Linnaeus)]. Test results are set forth in Table I. A control sample, comprising the solution without the candidate insecticide, is also included.

Mexican bean beetle = assay: Initial insecticidal activity, Mexican bean beetle; assay type: in vivo, Epilachna varivestis Mulsant; conditions: Epilachna varivestis, 48-hour exposure, read-out: % Kill, Mexican Bean Beetle
From the text: as §1, §2

southern armyworm = assay: Initial insecticidal activity, southern armyworm; assay type: in vivo, Spodoptera eridania (Cramer); conditions: Spodoptera eridania, 48-hour exposure, read-out: % Kill, Southern Armyworm
From the text: as §1, §2

large milkweed bug = assay: Seven-day residual insecticidal activity, milkweed bug; assay type: in vivo, Oncopeltus fasciatus (Dallas); conditions: Oncopeltus fasciatus, 48-hour exposure, read-out: % Kill, Milkweed Bug
From the text: (§3) b. Seven-Day Residual Insecticidal Activity
(§4) In this test, a candidate insecticide, in solution, is applied to uninfested plants or containers by dipping or spraying. A seven-day holding period is necessary before infestation. A 48-hour exposure period is observed before evaluation of the tests. The insect species used in this type of test are the same as those listed under initial activity.

confused flour beetle = assay: Seven-day residual insecticidal activity, confused flour beetle; assay type: in vivo, Tribolium confusum Jacquelin duVal; conditions: Tribolium confusum, 48-hour exposure, read-out: % Kill, Confused Flour Beetle
From the text: as §3, §4

pea aphid = assay: Seven-day residual insecticidal activity, pea aphid; assay type: in vivo, Acyrthosiphon pisum (Harris); conditions: Acyrthosiphon pisum, 48-hour exposure, read-out: % Kill, Pea Aphid
From the text: as §3, §4

twospotted spider mite [1] = assay: Seven-day residual insecticidal activity, twospotted spider mite; assay type: in vivo, Tetranychus urticae Koch; conditions: Tetranychus urticae, 48-hour exposure, read-out: % Kill, Twospotted Spider Mite
From the text: as §3, §4

twospotted spider mite [2] = assay: Ovicidal activity against the twospotted spider mite; assay type: in vivo, Tetranychus urticae Koch; conditions: Tetranychus urticae, eggs, 7 to 10 days, read-out: % Kill (ovicidal)
Description: d. Ovicidal Activity Against the Twospotted Spider Mite
In this test, Pinto bean seedlings are infested with female twospotted spider mites; about 3-4 hours are allowed for egg deposition. Plants are then dipped in TEPP (tetraethylpyrophosphate-commercial emulsifiable concentrate (EC)) solution containing 936 ppm of active ingredient. TEPP kills motile forms on the leaf and promptly degrades without effecting the egg stage. Two to three hours after TEPP treatment the plants are again dipped -- this time into a candidate insecticide solution. The test plants are maintained for 7 to 10 days. Termination of exposure is determined by the time required to attain complete hatch in the untreated check.

house flies = assay: Level I immersion test, house flies; assay type: in vivo, Musca domestica Linnaeus; conditions: HF, 5 mg/milliliter; for % Knockdown: 10 minutes after immersion; for mortality at 5000 µg/mL: Musca domestica, after 18-24 hours, read-out: % Kill
Description: e. Insecticidal Activity Against House Flies and German Cockroaches
Compounds of this invention were tested in a Level I test at 5 mg. of active compounds/milliliter of a solution of 40% acetone -- 60% water.
In this test a group of ten house flies (Musca domestica Linnaeus) were completely immersed in 25 ml. of the insecticidal test solution. After 10 seconds of immersion, the test solution is removed. The house flies are then transferred to holding cages lines with paper toweling. In the case of the house flies, the knockdown counts were recorded 10 minutes after termination of the immersion. The percent kill was recorded after 18-24 hours.

SMILES	mortality at 39 ppm (plum curculio)	mortality at 156 ppm (plum curculio)	mortality at 1250 ppm (plum curculio)	mortality at 39 ppm (Mexican bean beetle)	mortality at 156 ppm (Mexican bean beetle)	mortality at 1250 ppm (Mexican bean beetle)	mortality at 39 ppm (southern armyworm)	mortality at 156 ppm (southern armyworm)	mortality at 1250 ppm (southern armyworm)	mortality at 39 ppm (large milkweed bug)	mortality at 156 ppm (large milkweed bug)	mortality at 1250 ppm (large milkweed bug)	mortality at 39 ppm (confused flour beetle)	mortality at 156 ppm (confused flour beetle)	mortality at 1250 ppm (confused flour beetle)	mortality at 39 ppm (pea aphid)	mortality at 156 ppm (pea aphid)	mortality at 1250 ppm (pea aphid)	mortality at 39 ppm (twospotted spider mite [1])	mortality at 156 ppm (twospotted spider mite [1])	further results
CCN(SN(C)C(=O)Oc1cccc2c1OC(C)(C)C2)P(=O)(OC)OC [5(c), 2,3-dihydro-2,2-dimethyl-7-benzofuranyl [(N-dimethoxyphosphinyl) (N-ethyl)aminosulfenyl][methyl]carbamate]	50%	85%	100%	78%	100%	100%	0%	69%	100%	0%	100%	100%	0%	0%	0%	0%	0%	62%	2%	0%	mortality at 1250 ppm (twospotted spider mite [1]): 2%; mortality at 156 ppm (twospotted spider mite [2]): 0%; mortality at 1250 ppm (twospotted spider mite [2]): 38%; % Knockdown (house flies): 100%; mortality at 5000 µg/mL (house flies): 100%
CC(C)OP(=O)(OC(C)C)N(C)SN(C)C(=O)Oc1cccc2c1OC(C)(C)C2 [6(c), 2,3-Dihydro-2,2-dimethyl-7-benzofuranyl [(N-diisopropoxyphosphinyl) (N-methyl)aminosulfenyl][methyl]carbamate]	0%	45%	100%	100%	94%	100%	6%	73%	100%	5%	25%	100%	0%	0%	0%	0%	0%	5%	0%	1%	mortality at 1250 ppm (twospotted spider mite [1]): 0%; mortality at 156 ppm (twospotted spider mite [2]): 0%; mortality at 1250 ppm (twospotted spider mite [2]): 91%; % Knockdown (house flies): 100%; mortality at 5000 µg/mL (house flies): 100%
CCCN(SN(C)C(=O)Oc1cccc2c1OC(C)(C)C2)P(=O)(Oc1ccccc1)Oc1ccccc1 [7(c)]	20%	50%	65%	95%	94%	100%	0%	29%	31%	26%	21%	60%	0%	0%	0%	0%	0%	0%	1%	0%	mortality at 1250 ppm (twospotted spider mite [1]): 0%; mortality at 156 ppm (twospotted spider mite [2]): 0%; mortality at 1250 ppm (twospotted spider mite [2]): 0%; % Knockdown (house flies): 40%; mortality at 5000 µg/mL (house flies): 0%
CCOP(=O)(OCC)N(CC)SN(C)C(=O)Oc1cccc2c1OC(C)(C)C2 [8(c), 2,3-Dihydro-2,2-dimethyl-7-benzofuranyl [(N-diethoxyphosphinyl) (N-ethyl)aminosulfenyl][methyl]carbamate]	0%	45%	100%	100%	100%	100%	0%	59%	100%	95%	100%	100%	0%	0%	12%	0%	0%	0%	0%	0%	mortality at 1250 ppm (twospotted spider mite [1]): 0%; mortality at 156 ppm (twospotted spider mite [2]): 0%; mortality at 1250 ppm (twospotted spider mite [2]): 26%; % Knockdown (house flies): 100%; mortality at 5000 µg/mL (house flies): 100%
